Results reported in patent US7705029B2 (Synta Pharmaceuticals Corp., priority 2004, dated 2010).

These compounds were tested on IL-2 production in a Human Jurkat Cell Line (assay: Inhibition of IL-2 production in PHA-stimulated Jurkat cells (IL-2 ELISA)). Details: Homo sapiens, Jurkat, 20 h, read-out: IC50 (concentration at which IL-2 release is inhibited by 50%).
Type: cell-based
Protocol: Jurkat cells (ATCC, Cat# TIB-152) were grown in RPMI1640 medium (ATCC, Cat# 30-2001) containing 10% of FBS (ATCC, Cat# 30-2020). For compound screening, Jurkat cells were plated in 96-well plates at a density of 0.5 million cells per well in RPMI1640 medium containing 1% of FBS. Then, various concentrations of each test compound were added to the cell plates followed by addition of PHA (Sigma, Cat# L-9017) at a final concentration of 2.5 μg/ml to stimulate IL-2 production. Cells were then incubated at 37° C. (+5% CO2) for 20 hours before ELISA assay. After 20 hours incubation, cell plates were centrifuged at 500-800 g for 5 minutes and the supernatants was collected for IL-2 detection using the human IL-2 ELISA kit purchased from Cell Sciences (Cat# 851.500.020). The ELISA assay for IL-2 production was done in 96-well plates using a protocol provided by Cell Sciences.
The IC50 (i.e., the concentration at which IL-2 release is inhibited by 50%) was determined and the results are shown in the Table. […] The designation “A” means an IC50 less than 0.010 μM; the designation B means an IC50 between 0.010 and 1.0 μM; and the designation “C” mean an IC50 greater than 1 μM.
`N#CC(=Cc1cccc(-n2nc(C(F)(F)F)cc2C(F)(F)F)c1)c1cc(F)ccc1F` [Compound 44, 3-[3-(3,5-Bis-trifluoromethyl-pyrazol-1-yl)-phenyl]-2-(2,5-difluoro-phenyl)-acrylonitrile] was tested, and the IC50 was greater than 1 µM. In the case of `N#CC(=Cc1ccc(-n2c(C(F)(F)F)nc3ccccc32)cc1)c1cccc(F)c1F` [Compound 45, 2-(2,3-Difluoro-phenyl)-3-[4-(2-trifluoromethyl-benzoimidazol-1-yl)-phenyl]-acrylonitrile], the IC50 is reported as 0.01 to 1 µM. With `N#CC(=Cc1ccc(-n2c(C(F)(F)F)nc3ccccc32)cc1)c1cc(F)ccc1F` [Compound 46, 2-(2,5-Difluoro-phenyl)-3-[4-(2-trifluoromethyl-benzoimidazol-1-yl)-phenyl]-acrylonitrile] the IC50 was 0.01 to 1 µM. Work on `N#CC(=Cc1ccc(-n2cccn2)cc1)c1ccccc1F` [Compound 48, 2-(2-Fluoro-phenyl)-3-(4-pyrazol-1-yl-phenyl)-acrylonitrile] yielded an IC50 greater than 1 µM.
